Where a SMILES comes first, the peptide text is derived from it. Bridges are numbered along the chain shown (N, C = ends).
Columns and labels:
Rat α6/α3β2β3 nAChR = target: T1, Rat α6/α3β2β3 nAChR (Rattus norvegicus, UniProt P04757+P12390+P43143); experiment: cell-based; type: cell-based
T1 construct: amino acids 1 to 237 of the rat α6 subunit protein; amino acids 233 to 499 of the rat α3 subunit protein; expressed in transfected cells; host or cells: Xenopus laevis oocytes, cRNA injected (pT7TS/rα6α3 for the chimera)

Rat α3β2 nAChR = target: T2, Rat α3β2 nAChR (Rattus norvegicus, UniProt P04757+P12390); experiment: cell-based; type: cell-based
T2 construct: expressed in transfected cells; host or cells: Xenopus laevis oocytes, cRNA injected

[1] = target: Mouse CNS α-MII Site (putative α6β2* nAChRs); type: binding
α4β2 nAChR = target: T3, α4β2 nAChR (Rattus norvegicus, UniProt P09483+P12390); type: cell-based
T3 construct: expressed in transfected cells; host or cells: Xenopus laevis oocytes, cRNA injected
T3 sequence (P09483 31-630 limits assumed): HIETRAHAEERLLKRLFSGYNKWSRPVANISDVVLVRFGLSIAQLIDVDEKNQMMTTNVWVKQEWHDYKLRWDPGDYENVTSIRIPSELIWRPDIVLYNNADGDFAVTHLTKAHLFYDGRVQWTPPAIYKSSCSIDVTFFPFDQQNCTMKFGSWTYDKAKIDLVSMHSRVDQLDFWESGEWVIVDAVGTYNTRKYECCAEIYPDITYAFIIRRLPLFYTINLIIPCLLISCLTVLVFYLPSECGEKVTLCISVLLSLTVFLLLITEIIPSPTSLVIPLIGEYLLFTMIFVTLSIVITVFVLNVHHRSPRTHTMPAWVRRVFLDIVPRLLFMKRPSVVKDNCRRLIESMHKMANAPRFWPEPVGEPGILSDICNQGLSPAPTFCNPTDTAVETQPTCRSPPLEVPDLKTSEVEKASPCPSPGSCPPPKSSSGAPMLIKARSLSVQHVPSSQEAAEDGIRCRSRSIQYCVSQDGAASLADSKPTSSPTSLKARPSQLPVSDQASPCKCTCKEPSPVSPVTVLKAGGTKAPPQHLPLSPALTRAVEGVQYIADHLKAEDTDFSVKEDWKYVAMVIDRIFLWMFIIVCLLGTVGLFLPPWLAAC
T3 sequence (P12390 25-500 limits assumed): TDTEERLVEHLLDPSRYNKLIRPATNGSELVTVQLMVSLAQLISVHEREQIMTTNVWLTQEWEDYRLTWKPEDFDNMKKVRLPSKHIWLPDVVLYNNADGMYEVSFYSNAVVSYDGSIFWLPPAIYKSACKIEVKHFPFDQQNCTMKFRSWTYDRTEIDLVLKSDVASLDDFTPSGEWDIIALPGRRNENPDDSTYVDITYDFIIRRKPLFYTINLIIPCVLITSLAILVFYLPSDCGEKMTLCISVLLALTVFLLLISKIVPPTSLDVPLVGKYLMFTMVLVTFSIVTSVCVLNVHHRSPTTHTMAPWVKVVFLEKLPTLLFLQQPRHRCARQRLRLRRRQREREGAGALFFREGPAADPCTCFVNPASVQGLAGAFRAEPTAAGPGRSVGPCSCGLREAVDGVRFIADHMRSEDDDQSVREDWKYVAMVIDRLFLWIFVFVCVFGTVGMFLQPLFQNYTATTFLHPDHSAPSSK

T2 sequence (P04757 26-499 limits assumed): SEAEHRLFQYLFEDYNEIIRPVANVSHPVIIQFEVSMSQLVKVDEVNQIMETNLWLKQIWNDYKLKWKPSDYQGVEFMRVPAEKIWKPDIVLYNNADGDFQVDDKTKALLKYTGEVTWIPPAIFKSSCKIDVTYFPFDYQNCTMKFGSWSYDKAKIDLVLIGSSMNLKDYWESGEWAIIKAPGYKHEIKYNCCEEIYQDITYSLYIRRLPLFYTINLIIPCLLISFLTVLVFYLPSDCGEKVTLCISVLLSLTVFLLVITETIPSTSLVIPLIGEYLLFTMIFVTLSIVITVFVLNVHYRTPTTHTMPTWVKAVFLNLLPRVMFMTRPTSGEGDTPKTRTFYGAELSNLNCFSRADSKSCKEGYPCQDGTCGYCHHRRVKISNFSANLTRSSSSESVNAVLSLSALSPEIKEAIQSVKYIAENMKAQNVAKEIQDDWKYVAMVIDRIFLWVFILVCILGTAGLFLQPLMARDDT
T2 sequence (P12390 25-500 limits assumed): as the sequence (P12390 25-500 limits assumed) above
T1 sequence (P43143 31-237 limits assumed): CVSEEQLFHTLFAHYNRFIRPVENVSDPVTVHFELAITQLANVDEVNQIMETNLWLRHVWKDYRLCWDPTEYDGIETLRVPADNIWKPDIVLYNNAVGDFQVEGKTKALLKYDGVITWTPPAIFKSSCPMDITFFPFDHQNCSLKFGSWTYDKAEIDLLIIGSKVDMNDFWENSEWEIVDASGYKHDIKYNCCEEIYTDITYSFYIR
T1 sequence (P04757 233-499 limits assumed): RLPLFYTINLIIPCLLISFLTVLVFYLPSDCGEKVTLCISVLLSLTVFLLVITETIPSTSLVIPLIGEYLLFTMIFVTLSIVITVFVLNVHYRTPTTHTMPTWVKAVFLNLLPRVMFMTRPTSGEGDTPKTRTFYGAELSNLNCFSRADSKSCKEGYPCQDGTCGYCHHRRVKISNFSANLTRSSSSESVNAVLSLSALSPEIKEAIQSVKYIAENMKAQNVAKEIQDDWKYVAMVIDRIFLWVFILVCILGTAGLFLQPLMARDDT
T1 sequence (P12390 25-500 limits assumed): as the sequence (P12390 25-500 limits assumed) above

## CC(C)C[C@@H]1NC(=O)[C@H](C)NC(=O)[C@H](CO)NC(=O)[C@H](Cc2c[nH]cn2)NC(=O)[C@H](CCC(=O)O)NC(=O)[C@H](CC(C)C)NC(=O)[C@H](Cc2c[nH]cn2)NC(=O)[C@@H]2CSSC[C@H](NC(=O)CN)C(=O)N[C@@H](CSSC[C@@H](C(N)=O)NC1=O)C(=O)N[C@@H](CO)C(=O)N[C@@H](CC(N)=O)C(=O)N1CCC[C@H]1C(=O)N[C@@H](C(C)C)C(=O)N2 [MII[N14A]] (H-GCCSNPVCHLEHSALC-NH2; disulfide 2-8, 3-16)
Rat α6/α3β2β3 nAChR
  IC50: 1.06 nM
Rat α3β2 nAChR
  IC50: 25.7 nM
  Ratio IC50 α3β2/IC50 α6/α3β2β3: 24.2

## CC(C)C[C@@H]1NC(=O)[C@H](CC(N)=O)NC(=O)[C@H](CO)NC(=O)[C@H](Cc2c[nH]cn2)NC(=O)[C@H](CCC(=O)O)NC(=O)[C@H](CC(C)C)NC(=O)[C@H](Cc2c[nH]cn2)NC(=O)[C@@H]2CSSC[C@H](NC(=O)CN)C(=O)N[C@@H](CSSC[C@@H](C(N)=O)NC1=O)C(=O)N[C@@H](CO)C(=O)N[C@@H](C)C(=O)N1CCC[C@H]1C(=O)N[C@@H](C(C)C)C(=O)N2 [MII[N5A]] (H-GCCSAPVCHLEHSNLC-NH2; disulfide 2-8, 3-16)
Rat α6/α3β2β3 nAChR
  IC50: 793 nM
Rat α3β2 nAChR
  IC50: > 10000 nM
  Ratio IC50 α3β2/IC50 α6/α3β2β3: >12.6

## CC(C)C[C@@H]1NC(=O)[C@H](CC(N)=O)NC(=O)[C@H](CO)NC(=O)[C@H](Cc2c[nH]cn2)NC(=O)[C@H](CCC(=O)O)NC(=O)[C@H](C)NC(=O)[C@H](Cc2c[nH]cn2)NC(=O)[C@@H]2CSSC[C@H](NC(=O)CN)C(=O)N[C@@H](CSSC[C@@H](C(N)=O)NC1=O)C(=O)N[C@@H](CO)C(=O)N[C@@H](CC(N)=O)C(=O)N1CCC[C@H]1C(=O)N[C@@H](C(C)C)C(=O)N2 [MII[L10A]] (H-GCCSNPVCHAEHSNLC-NH2; disulfide 2-8, 3-16)
Rat α6/α3β2β3 nAChR
  IC50: 0.482 nM
Rat α3β2 nAChR
  IC50: 1.47 nM
  Ratio IC50 α3β2/IC50 α6/α3β2β3: 3.05

## CC(C)C[C@@H]1NC(=O)[C@H](CC(N)=O)NC(=O)[C@H](CO)NC(=O)[C@H](C)NC(=O)[C@H](CCC(=O)O)NC(=O)[C@H](CC(C)C)NC(=O)[C@H](Cc2c[nH]cn2)NC(=O)[C@@H]2CSSC[C@H](NC(=O)CN)C(=O)N[C@@H](CSSC[C@@H](C(N)=O)NC1=O)C(=O)N[C@@H](CO)C(=O)N[C@@H](CC(N)=O)C(=O)N1CCC[C@H]1C(=O)N[C@@H](C(C)C)C(=O)N2 [MII[H12A]] (H-GCCSNPVCHLEASNLC-NH2; disulfide 2-8, 3-16)
Rat α6/α3β2β3 nAChR
  IC50: 604 nM
Rat α3β2 nAChR
  IC50: 4660 nM
  Ratio IC50 α3β2/IC50 α6/α3β2β3: 7.72

## CC(C)C[C@@H]1NC(=O)[C@H](C)NC(=O)[C@@H]2CSSC[C@H](NC(=O)CN)C(=O)N[C@@H](CSSC[C@@H](C(N)=O)NC(=O)[C@H](CC(C)C)NC(=O)[C@H](CC(N)=O)NC(=O)[C@H](CO)NC(=O)[C@H](Cc3c[nH]cn3)NC(=O)[C@H](CCC(=O)O)NC1=O)C(=O)N[C@@H](CO)C(=O)N[C@@H](CC(N)=O)C(=O)N1CCC[C@H]1C(=O)N[C@@H](C(C)C)C(=O)N2 [MII[H9A]] (H-GCCSNPVCALEHSNLC-NH2; disulfide 2-8, 3-16)
[1]
  Ki: 1.1 nM
Rat α6/α3β2β3 nAChR
  Hill slope, α6/α3β2β3: 0.73±0.08
  IC50: 0.79 nM
α4β2 nAChR
  ACh response, percentage of control, Rα4β2: 105.8±2.4 % of control
Rat α3β2 nAChR
  Hill slope, α3β2: 0.83±0.08
  IC50: 59 nM
  Ratio IC50 α3β2/IC50 α6/α3β2β3: 74.7

## CC(C)C[C@@H]1NC(=O)[C@H](CC(N)=O)NC(=O)[C@H](CO)NC(=O)[C@H](Cc2c[nH]cn2)NC(=O)[C@H](CCC(=O)O)NC(=O)[C@H](CC(C)C)NC(=O)[C@H](Cc2c[nH]cn2)NC(=O)[C@@H]2CSSC[C@H](NC(=O)CN)C(=O)N[C@@H](CSSC[C@@H](C(N)=O)NC1=O)C(=O)N[C@@H](CO)C(=O)N[C@@H](CC(N)=O)C(=O)N1CCC[C@H]1C(=O)N[C@@H](C)C(=O)N2 [MII[V7A]] (H-GCCSNPACHLEHSNLC-NH2; disulfide 2-8, 3-16)
Rat α6/α3β2β3 nAChR
  IC50: 10.6 nM
Rat α3β2 nAChR
  IC50: 4.46 nM
  Ratio IC50 α3β2/IC50 α6/α3β2β3: 0.421

## CC(C)C[C@@H]1NC(=O)[C@H](Cc2c[nH]cn2)NC(=O)[C@@H]2CSSC[C@H](NC(=O)CN)C(=O)N[C@@H](CSSC[C@@H](C(N)=O)NC(=O)[C@H](C)NC(=O)[C@H](CC(N)=O)NC(=O)[C@H](CO)NC(=O)[C@H](Cc3c[nH]cn3)NC(=O)[C@H](C)NC1=O)C(=O)N[C@@H](CO)C(=O)N[C@@H](CC(N)=O)C(=O)N1CCC[C@H]1C(=O)N[C@@H](C(C)C)C(=O)N2 [MII[E11A; L15A]] (H-GCCSNPVCHLAHSNAC-NH2; disulfide 2-8, 3-16)
Rat α6/α3β2β3 nAChR
  IC50: 0.415 nM
Rat α3β2 nAChR
  IC50: 50.1 nM
  Ratio IC50 α3β2/IC50 α6/α3β2β3: 121

## CC(C)C[C@@H]1NC(=O)[C@H](Cc2c[nH]cn2)NC(=O)[C@@H]2CSSC[C@H](NC(=O)CN)C(=O)N[C@@H](CSSC[C@@H](C(N)=O)NC(=O)[C@H](C)NC(=O)[C@H](CC(N)=O)NC(=O)[C@H](CO)NC(=O)[C@H](Cc3c[nH]cn3)NC(=O)[C@H](CCC(=O)O)NC1=O)C(=O)N[C@@H](CO)C(=O)N[C@@H](CC(N)=O)C(=O)N1CCC[C@H]1C(=O)N[C@@H](C(C)C)C(=O)N2 [MII[L15A]] (H-GCCSNPVCHLEHSNAC-NH2; disulfide 2-8, 3-16)
[1]
  Ki: 0.3 nM
Rat α6/α3β2β3 nAChR
  Hill slope, α6/α3β2β3: 0.75±0.08
  IC50: 0.917 nM
α4β2 nAChR
  ACh response, percentage of control, Rα4β2: 102.3±5.3 % of control
Rat α3β2 nAChR
  Hill slope, α3β2: 0.58±0.08
  IC50: 34.1 nM
  Ratio IC50 α3β2/IC50 α6/α3β2β3: 37.2

## CC(C)C[C@@H]1NC(=O)[C@H](CC(N)=O)NC(=O)[C@H](C)NC(=O)[C@H](Cc2c[nH]cn2)NC(=O)[C@H](CCC(=O)O)NC(=O)[C@H](CC(C)C)NC(=O)[C@H](Cc2c[nH]cn2)NC(=O)[C@@H]2CSSC[C@H](NC(=O)CN)C(=O)N[C@@H](CSSC[C@@H](C(N)=O)NC1=O)C(=O)N[C@@H](CO)C(=O)N[C@@H](CC(N)=O)C(=O)N1CCC[C@H]1C(=O)N[C@@H](C(C)C)C(=O)N2 [MII[S13A]] (H-GCCSNPVCHLEHANLC-NH2; disulfide 2-8, 3-16)
Rat α6/α3β2β3 nAChR
  IC50: 0.659 nM
Rat α3β2 nAChR
  IC50: 2.54 nM
  Ratio IC50 α3β2/IC50 α6/α3β2β3: 3.85

## CC(C)C[C@@H]1NC(=O)[C@H](CC(N)=O)NC(=O)[C@H](CO)NC(=O)[C@H](Cc2c[nH]cn2)NC(=O)[C@H](CCC(=O)O)NC(=O)[C@H](CC(C)C)NC(=O)[C@H](Cc2c[nH]cn2)NC(=O)[C@@H]2CSSC[C@H](NC(=O)CN)C(=O)N[C@@H](CSSC[C@@H](C(N)=O)NC1=O)C(=O)N[C@@H](CO)C(=O)N[C@@H](CC(N)=O)C(=O)N1CCC[C@H]1C(=O)N[C@@H](C(C)C)C(=O)N2 [MII, reference compound]
[1]
  Ki: 0.22 nM
Rat α3β2 nAChR
  Hill slope, α3β2: 0.75±0.13

## CC(C)C[C@@H]1NC(=O)[C@H](CC(N)=O)NC(=O)[C@H](CO)NC(=O)[C@H](Cc2c[nH]cn2)NC(=O)[C@H](CCC(=O)O)NC(=O)[C@H](CC(C)C)NC(=O)[C@H](Cc2c[nH]cn2)NC(=O)[C@@H]2CSSC[C@H](NC(=O)CN)C(=O)N[C@@H](CSSC[C@@H](C(N)=O)NC1=O)C(=O)N[C@@H](C)C(=O)N[C@@H](CC(N)=O)C(=O)N1CCC[C@H]1C(=O)N[C@@H](C(C)C)C(=O)N2 [MII[S4A]] (H-GCCANPVCHLEHSNLC-NH2; disulfide 2-8, 3-16)
Rat α6/α3β2β3 nAChR
  IC50: 0.733 nM
Rat α3β2 nAChR
  IC50: 15.8 nM
  Ratio IC50 α3β2/IC50 α6/α3β2β3: 21.56

## CC(C)C[C@@H]1NC(=O)[C@H](CC(N)=O)NC(=O)[C@H](CO)NC(=O)[C@H](Cc2c[nH]cn2)NC(=O)[C@H](CCC(=O)O)NC(=O)[C@H](CC(C)C)NC(=O)[C@H](Cc2c[nH]cn2)NC(=O)[C@@H]2CSSC[C@H](NC(=O)CN)C(=O)N[C@@H](CSSC[C@@H](C(N)=O)NC1=O)C(=O)N[C@@H](CO)C(=O)N[C@@H](CC(N)=O)C(=O)N[C@@H](C)C(=O)N[C@@H](C(C)C)C(=O)N2 [MII[P6A]] (H-GCCSNAVCHLEHSNLC-NH2; disulfide 2-8, 3-16)
Rat α6/α3β2β3 nAChR
  IC50: 253 nM
Rat α3β2 nAChR
  IC50: 4420 nM
  Ratio IC50 α3β2/IC50 α6/α3β2β3: 17.5

## CC(C)C[C@@H]1NC(=O)[C@H](C)NC(=O)[C@@H]2CSSC[C@H](NC(=O)CN)C(=O)N[C@@H](CSSC[C@@H](C(N)=O)NC(=O)[C@H](CC(C)C)NC(=O)[C@H](CC(N)=O)NC(=O)[C@H](CO)NC(=O)[C@H](Cc3c[nH]cn3)NC(=O)[C@H](CCC(=O)O)NC1=O)C(=O)N[C@@H](C)C(=O)N[C@@H](CC(N)=O)C(=O)N1CCC[C@H]1C(=O)N[C@@H](C(C)C)C(=O)N2 [MII[S4A; H9A]] (H-GCCANPVCALEHSNLC-NH2; disulfide 2-8, 3-16)
Rat α6/α3β2β3 nAChR
  IC50: 1.97 nM
Rat α3β2 nAChR
  IC50: 207 nM
  Ratio IC50 α3β2/IC50 α6/α3β2β3: 105

## CC(C)[C@@H]1NC(=O)[C@@H]2CCCN2C(=O)[C@H](CC(N)=O)NC(=O)[C@H](CO)NC(=O)[C@@H]2CSSC[C@@H](C(N)=O)NC(=O)[C@H](C)NC(=O)[C@H](CC(N)=O)NC(=O)[C@H](CO)NC(=O)[C@H](Cc3c[nH]cn3)NC(=O)[C@H](CCC(=O)O)NC(=O)[C@H](C)NC(=O)[C@H](Cc3c[nH]cn3)NC(=O)[C@H](CSSC[C@H](NC(=O)CN)C(=O)N2)NC1=O [MII[L10A; L15A]] (H-GCCSNPVCHAEHSNAC-NH2; disulfide 2-8, 3-16)
Rat α6/α3β2β3 nAChR
  IC50: 1.8 nM
Rat α3β2 nAChR
  IC50: 17.2 nM
  Ratio IC50 α3β2/IC50 α6/α3β2β3: 9.56

Source: patent US7387997B2 (University of Utah, priority 2004, dated 2008)
